According to article PMC7139504, “New Arylethanolimidazole Derivatives as HO-1 Inhibitors with Cytotoxicity against MCF-7 Breast Cancer Cells” (International Journal of Molecular Sciences, 2020):
Several values for one entry are separate records, joined by “and”; a condition that tells them apart may be missing. Identical values can stand only once. Like-named read-outs stand apart in the source and are kept apart here.

How the values were obtained:
HO-1 [1] = target: T1, HO-1 (Rattus norvegicus, UniProt P06762); conditions: reference compounds; data taken from ref 32; read-out: IC50 (μM) ± SD HO-1; cited from earlier work
T1 construct: selected in order to use the most native (i.e., closest to in vivo) forms of HO-1 and HO-2; from tissue; host or cells: spleen microsomal fraction of male Sprague-Dawley rats
T1 sequence (P06762 1-289): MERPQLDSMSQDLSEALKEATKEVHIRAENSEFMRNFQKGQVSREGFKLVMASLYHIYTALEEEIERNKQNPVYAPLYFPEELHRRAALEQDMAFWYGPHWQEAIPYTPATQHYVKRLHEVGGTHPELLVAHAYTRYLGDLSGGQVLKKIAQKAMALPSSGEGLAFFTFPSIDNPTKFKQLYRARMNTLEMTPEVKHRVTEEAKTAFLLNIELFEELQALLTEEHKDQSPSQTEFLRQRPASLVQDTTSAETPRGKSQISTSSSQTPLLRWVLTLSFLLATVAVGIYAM

HO-2 [2] = target: T2, HO-2 (Rattus norvegicus, UniProt P23711); conditions: reference compounds; data taken from ref 32; read-out: IC50 (μM) ± SD HO-2; cited from earlier work
T2 construct: selected in order to use the most native (i.e., closest to in vivo) forms of HO-1 and HO-2; from tissue; host or cells: brain microsomal fraction of male Sprague-Dawley rats
T2 sequence (P23711 1-315): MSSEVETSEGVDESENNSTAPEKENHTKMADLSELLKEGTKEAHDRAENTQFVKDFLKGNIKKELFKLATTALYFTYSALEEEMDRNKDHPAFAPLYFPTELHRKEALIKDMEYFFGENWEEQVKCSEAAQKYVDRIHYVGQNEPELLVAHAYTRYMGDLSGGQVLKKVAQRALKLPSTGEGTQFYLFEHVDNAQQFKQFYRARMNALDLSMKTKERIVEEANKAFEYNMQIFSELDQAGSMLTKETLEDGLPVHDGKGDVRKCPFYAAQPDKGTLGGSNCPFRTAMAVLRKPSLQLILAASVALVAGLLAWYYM

HO-1 [3] = target: T1, HO-1; assay: HO-1 inhibition, bilirubin formation in rat spleen microsomal fraction; assay type: biochemical
Experimental: (§1) HO-1 and HO-2 were obtained from the microsomal fractions of rat spleen and rat brain, respectively. Enzymatic activity of both isoforms was determined by measuring the bilirubin formation using the difference in absorbance at 464–530 nm, as described in the experimental section. Compounds A–C, and tin protoporphyrin (SnPP) were used as reference substances. Inhibition of enzymes activity is expressed as IC50 (μM), and results are resumed in Table 1.
The dominance of HO-1 protein in the rat spleen and of HO-2 in the rat brain has been well documented; thus, the microsomal fraction, prepared by differential centrifugation, from rat spleen and brain have been used to obtain HO-1 and HO-2. These particular microsomal preparations were selected in order to use the most native (i.e., closest to in vivo) forms of HO-1 and HO-2. Spleen and brain microsomal fractions, from Sprague–Dawley rats, were prepared following a published procedure. All experiments complied with current Italian law and met the guidelines of the Institutional Animal Care and Use Committee of MINISTRY OF HEALTH (Directorate General for Animal Health and Veterinary Medicines, Italy). Male Sprague–Dawley albino rats (150 g body weight and age 45 d) were used. Rats had free access to water, and they were maintained at room temperature with a natural photoperiod (12 h:12 h light–dark cycle). For measuring HO-1 and HO-2 activities, each rat was sacrificed and their spleen and brain were excised and weighed. A homogenate (15%, w/v) of spleens and brains pooled from four rats was prepared in ice-cold HO-homogenizing buffer (50 mM Tris buffer, pH 7.4, containing 0.25 M sucrose) using a Potter–Elvehjem homogenizing system with a Teflon pestle. The microsomal fraction of rat spleen and brain homogenate was obtained by centrifugation at 10,000× g for 20 min at 4 °C, followed by centrifugation of the supernatant at 100,000× g for 60 min at 4 °C. The 100,000× g pellet (microsomes) was resuspended in 100 mM potassium phosphate buffer, pH 7.8, containing 2 mM MgCl2 with a Potter–Elvehjem homogenizing system. Equal aliquots of the rat spleen and brain microsomal fractions were prepared, placed into microcentrifuge tubes, and stored at −80 °C for up to 2 months. Finally, the Lowry method was used to determine the protein concentration of the microsomal fraction.
Liver cytosol has been used as a source of biliverdin reductase. Rat liver was perfused through the hepatic portal vein with cold 0.9% NaCl, then it was cut and flushed with 2 × 20 mL of ice-cold PBS to remove all of the blood. Liver tissue was homogenized in three volumes of a solution containing 1.15% KCl w/v and Tris buffer 20 mM, pH 7.8 on ice. Homogenates were centrifuged at 10,000× g for 20 min at 4 °C. The supernatant was decanted and centrifuged at 100,000× g for 1 h at 4 °C to sediment the microsomes. The 100,000× g supernatant was saved and then stored in small amounts at −80 °C after its protein concentration was measured.
The measurement of bilirubin formation, using the difference in absorbance at 464–530 nm, was used to determine the HO-1 and HO-2 activities, as previously described by Ryter et al.. Reaction mixtures (500 μL) consisted of 20 mM Tris–HCl, pH 7.4, (1 mg/mL) microsomal extract, 0.5–2 mg/mL biliverdin reductase, 1 mM NADPH, 2 mM glucose 6-phosphate (G6P), 1 U G6P dehydrogenase, 25 μM hemin, and 10 μL of DMSO (or the same volume of DMSO solution of test or reference compounds to a final concentration of 100, 10, and 1 μM). Incubations were carried out for 60 min at 37 °C in a circulating water bath in the dark. One volume of chloroform was added to stop the reactions. Then, the chloroform phase was recovered, and the amount of bilirubin, which was formed has been measured with a double-beam spectrophotometer as OD464–530 nm (extinction coefficient, 40 mM/cm^−1 for bilirubin). […]

HO-2 [4] = target: T2, HO-2; assay: HO-2 inhibition, bilirubin formation in rat brain microsomal fraction; assay type: biochemical; conditions: mean ± SD of three determinations
Experimental: as §1
The dominance of HO-1 protein in the rat spleen and of HO-2 in the rat brain has been well documented; thus, the microsomal fraction, prepared by differential centrifugation, from rat spleen and brain have been used to obtain HO-1 and HO-2. These particular microsomal preparations were selected in order to use the most native (i.e., closest to in vivo) forms of HO-1 and HO-2. Spleen and brain microsomal fractions, from Sprague–Dawley rats, were prepared following a published procedure. All experiments complied with current Italian law and met the guidelines of the Institutional Animal Care and Use Committee of MINISTRY OF HEALTH (Directorate General for Animal Health and Veterinary Medicines, Italy). Male Sprague–Dawley albino rats (150 g body weight and age 45 d) were used. Rats had free access to water, and they were maintained at room temperature with a natural photoperiod (12 h:12 h light–dark cycle). For measuring HO-1 and HO-2 activities, each rat was sacrificed and their spleen and brain were excised and weighed. […]
Liver cytosol has been used as a source of biliverdin reductase. […] The 100,000× g supernatant was saved and then stored in small amounts at −80 °C after its protein concentration was measured.
The measurement of bilirubin formation, using the difference in absorbance at 464–530 nm, was used to determine the HO-1 and HO-2 activities, as previously described by Ryter et al.. […] Then, the chloroform phase was recovered, and the amount of bilirubin, which was formed has been measured with a double-beam spectrophotometer as OD464–530 nm (extinction coefficient, 40 mM/cm^−1 for bilirubin). […]

MCF-7 cells = assay: Sulforhodamine B (SRB) cytotoxicity assay, MCF-7; assay type: cell-based; conditions: Homo sapiens, MCF7, hormone-sensitive breast cancer cells, 10–100 μM, 48 h, mean ± SEM (n = 3), read-out: IC50 cytotoxicity against MCF-7
Experimental: (§2) Both cell lines were treated with 10–100 μM of compound 5a for 48 h. Cell survival at different concentrations was calculated compared to untreated controls. At the end of treatment, cell number was determined using the sulforhodamine B (SRB) colorimetric assay based on the measurement of cellular protein content.
(§3) MCF-7 and MDA-MB-231 cells were maintained in complete growth media (DMEM/Ham’s F12 supplemented with 10% fetal bovine serum, 2 mM L-glutamine, 100 units/mL penicillin, 100 units/mL of streptomycin, and 2.2 g/L of NaHCO3) at 37 °C in a humidified atmosphere of 5% CO2. For all procedures, cells were harvested using TrypLE Express (Life Technologies, Auckland, New Zealand).
(§4) Cells were seeded into 96-well plates and incubated for 24 h to test the cytotoxic effect of the HO inhibitor. After 24 h incubation, different concentrations of the HO inhibitor were administered for 48 h. Following the incubation, cells were fixed using 10% trichloro-acetic acid (TCA). The cytotoxicity was determined using the sulforhodamine B assay was used, as previously described, to determine the cytotoxicity of the HO-1 inhibitor. IC50 (the concentration required to decrease the cell number by 50%) was determined by non-linear regression using Graphpad prism 6 software. Treatments were performed in triplicate, and data represent the mean of three independent experiments.

MDA-MB-231 cells = assay: Sulforhodamine B (SRB) cytotoxicity assay, MDA-MB-231; assay type: cell-based; conditions: hormone-resistant breast cancer cells, 10–100 μM, 48 h
Experimental: as §2, §3, §4

[5] = experimental values repeated in the docking table, read-out: IC50 exp. (μM) HO-1
[6] = rat spleen microsomal fraction, mean ± SD of three determinations, read-out: IC50 (μM) ± SD HO-1

Row | SMILES | IC50 (HO-1 [3]; [5]) [µM] | IC50 (HO-1 [3]; [6]) [µM] | melting point [°C] | other results
1 | OC(Cn1ccnc1)c1cccc(-c2ccccc2)c1 (centres unmarked) [B] | – | – | – | IC50 (HO-1 [1]): 0.95 µM; IC50 (HO-2 [2]): > 100 µM
2 | OC(Cn1ccnc1)c1ccc(OCc2ccc(Br)cc2)cc1 (centres unmarked) [C] | – | – | – | IC50 (HO-2 [2]): > 100 µM
3 | Brc1cccc(CCn2ccnc2)c1 [Compound 2a, 1-(3-bromophenethyl)-1H-imidazole] | 100 | 100 ± 5.6 | – | –
4 | Brc1ccc(COc2ccc(CCn3ccnc3)cc2)cc1 [Compound 2b, 1-(4-((4-bromobenzyl)oxy)phenethyl)-1H-imidazole] | 62.9 ± 3.2 | 62.9 ± 3.2 | 147.5 to 149.7 | –
5 | c1ccc(-c2cccc(CCn3ccnc3)c2)cc1 [Compound 2c, 1-(2-((1,1’-biphenyl)-3-yl)ethyl)-1H-imidazole] | 46.8 ± 1.8 | 46.8 ± 1.8 | – | –
6 | O=C(Cn1ccnc1)c1cccc(Br)c1 [Compound 4g] | – | 38.2 ± 1.8 | – | –
7 | O=C(Cn1ccnc1)c1cccc(-c2ccccc2)c1 [Compound 4h] | – | 19.9 ± 2.5 | – | –
8 | O=C(Cn1ccnc1)c1ccc(OCc2ccc(Br)cc2)cc1 [Compound 4i] | – | 55.46 ± 0.05 | – | –
9 | OC(Cn1ccnc1)c1cccc(OCc2ccc(Br)cc2)c1 (centres unmarked) [Compound 5a, 1-[3-[(4-bromobenzyl)oxy]phenyl]-2-(1H-imidazol-1-yl)ethanol] | 0.9 ± 0.02 | 0.9 ± 0.02 | 123 to 126 | IC50 (HO-2 [4]): 54 µM and 53.6 µM; IC50 (MCF-7 cells): 47.4 ± 6.8 µM; cytotoxicity against MDA-MB-231 (MDA-MB-231 cells): no cytotoxicity
10 | OC(Cn1ccnc1)c1ccccc1OCc1ccc(Br)cc1 (centres unmarked) [Compound 5b, 1-[2-[(4-bromobenzyl)oxy]phenyl]-2-(1H-imidazol-1-yl)ethanol] | > 100 | ≥ 100 | 121.5 to 130 | –
11 | OC(Cn1ccnc1)c1ccc(OCc2cccc(Br)c2)cc1 (centres unmarked) [Compound 5c, 1-[4-[(3-bromobenzyl)oxy]phenyl]-2-(1H-imidazol-1-yl)ethanol] | 41 ± 1.5 | 41 ± 1.5 | 120.1 to 123 | –
12 | OC(Cn1ccnc1)c1ccc(OCc2ccccc2Br)cc1 (centres unmarked) [Compound 5d, 1-[4-[(2-bromobenzyl)oxy]phenyl]-2-(1H-imidazol-1-yl)ethanol] | 9 ± 2.2 | 9 ± 2.2 | 120 to 126 | IC50 (HO-2 [4]): 15.8 ± 1.6 µM
13 | OC(Cn1ccnc1)c1cccc(OCc2cccc(Br)c2)c1 (centres unmarked) [Compound 5e, 1-[3-[(3-bromobenzyl)oxy]phenyl]-2-(1H-imidazol-1-yl)ethanol] | 46 ± 1.9 | 46 ± 1.9 | 93.5 to 99.4 | –
14 | OC(Cn1ccnc1)c1cccc(OCc2ccccc2Br)c1 (centres unmarked) [Compound 5f, 1-[3-[(2-bromobenzyl)oxy]phenyl]-2-(1H-imidazol-1-yl)ethanol] | 44 ± 1.8 | 44 ± 1.8 | 132 to 140 | –
15 | Clc1ccc(COC(Cn2ccnc2)c2cccc(Br)c2)cc1 (centres unmarked) [Compound 6a, 1-(2-(3-bromophenyl)-2-((4-chlorobenzyl)oxy)ethyl)-1H-imidazole] | > 100 | > 100 | – | –
16 | Clc1ccc(Cl)c(COC(Cn2ccnc2)c2cccc(Br)c2)c1 (centres unmarked) [Compound 6b, 1-(2-(3-bromophenyl)-2-((2,5-dichlorobenzyl)oxy)ethyl)-1H-imidazole] | 66 ± 3.2 | 66 ± 3.2 | – | –
17 | C=Cc1c2[n-]c(c1C)/C=c1\[n-]/c(c(C)c1C=C)=C\c1[n-]c(c(CCC(=O)O)c1C)/C=c1\[n-]c(c(C)c1CCC(=O)O)=C2.[Sn+4] [SnPP, tin protoporphyrin, reference compound] | – | 0.58 ± 0.03 | – | IC50 (HO-2 [4]): 0.36 ± 0.01 µM
